From ChEMBL document CHEMBL1138029, “Identification of neutral 4-O-alkyl quinolone nonpeptide GnRH receptor antagonists” (Bioorg Med Chem Lett, 2004)

How the values were obtained:
[1] = biological target: T1, Gonadotropin-releasing hormone receptor (Homo sapiens, UniProt P30968); experiment: Binding affinity towards human gonadotropin releasing hormone receptor expressed in CHO cells was determined by using [125I]-buserelin as radioligand; type: cell-based
T1 sequence (P30968 whole entry): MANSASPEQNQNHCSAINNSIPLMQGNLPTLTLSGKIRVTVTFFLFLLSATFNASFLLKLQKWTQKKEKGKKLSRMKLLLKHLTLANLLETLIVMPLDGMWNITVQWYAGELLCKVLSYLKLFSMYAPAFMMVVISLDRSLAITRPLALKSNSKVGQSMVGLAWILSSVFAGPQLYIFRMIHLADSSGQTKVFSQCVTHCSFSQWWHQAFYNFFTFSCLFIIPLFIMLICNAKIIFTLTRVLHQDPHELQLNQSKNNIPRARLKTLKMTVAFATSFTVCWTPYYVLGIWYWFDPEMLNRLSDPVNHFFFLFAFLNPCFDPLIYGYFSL

[2] = biological target: T1, Gonadotropin-releasing hormone receptor; experiment: Inhibition of GnRH-stimulated phosphatidyl inositol hydrolysis in CHO cells expressing GnRH receptor; type: functional, cell-based

`Cc1cc(-c2c(O)nc3cc(Cl)c(C(=O)Nc4cnsn4)cc3c2OCC[C@H]2CCC(=O)N2)cc(C)c1C` showed an IC50 [1] of 0.3 nM and an IC50 [2] of 0.7 nM.
With `Cc1cc(-c2c(O)nc3cc(Cl)c(C(=O)Nc4ccncn4)cc3c2OCC[C@@H]2CCC[C@H](C(F)(F)F)N2C)cc(C)c1C` the IC50 [1] was 2 nM and the IC50 [2] was 18 nM.
With `Cc1cc(-c2c(O)nc3cc(Cl)c(C(=O)Nc4cnsn4)cc3c2OCC[C@H]2CCO2)cc(C)c1C` the IC50 [1] was 0.9 nM and the IC50 [2] was 49 nM.
In the case of `Cc1cc(-c2c(OCC[C@@H]3CCCCN3)c3cc(C(=O)Nc4cnsn4)c(Cl)cc3[nH]c2=O)cc(C)c1C`, the IC50 [1] is reported as 0.55 nM and the IC50 [2] is reported as 1.6 nM.
Molecule `Cc1cc(-c2c(OCC[C@H]3CC(=O)N3)c3cc(C(=O)Nc4cnsn4)c(Cl)cc3[nH]c2=O)cc(C)c1C` has an IC50 [1] of 0.1 nM and an IC50 [2] of 1.3 nM.
`Cc1cc(-c2c(OCCC3CCCO3)c3cc(C(=O)Nc4ccncn4)c(Cl)cc3[nH]c2=O)cc(C)c1C` (stereo not given) gave an IC50 [1] of 0.6 nM and an IC50 [2] of 3.3 nM.
Work on `Cc1cc(-c2c(O)nc3cc(Cl)c(C(=O)Nc4ccncn4)cc3c2OCC[C@@H]2CCC[C@H](C(F)(F)F)N2)cc(C)c1C` yielded an IC50 [1] of 2 nM and an IC50 [2] of 18 nM.
With `Cc1cc(-c2c(OCC[C@@H]3CCN3)c3cc(C(=O)Nc4cnsn4)c(Cl)cc3[nH]c2=O)cc(C)c1C` the IC50 [1] was 0.32 nM and the IC50 [2] was 0.8 nM.
Molecule `Cc1cc(-c2c(O)nc3cc(Cl)c(C(=O)Nc4cnsn4)cc3c2OCC[C@H]2CCC(=O)N2C)cc(C)c1C` has an IC50 [1] of 1.4 nM and an IC50 [2] of 11 nM.
With `Cc1cc(-c2c(OCC[C@@H]3CCCCN3)c3cc(C(=O)Nc4ccncn4)c(Cl)cc3[nH]c2=O)cc(C)c1C` the IC50 [2] was 2.2 nM.
`Cc1cc(-c2c(O)nc3cc(Cl)c(C(=O)Nc4cnsn4)cc3c2OCCC2OCCO2)cc(C)c1C` showed an IC50 [1] of 0.6 nM and an IC50 [2] of 67 nM.
For `Cc1cc(-c2c(OCCC3COCCN3)c3cc(C(=O)Nc4cnsn4)c(Cl)cc3[nH]c2=O)cc(C)c1C` (stereo not given), the IC50 [1] was 0.7 nM and the IC50 [2] was 32 nM.
`Cc1cc(-c2c(O)nc3cc(Cl)c(C(=O)Nc4cnsn4)cc3c2OCCC2CCCC2)cc(C)c1C` gave an IC50 [1] of 243 nM and an IC50 [2] of 1150 nM.
For `Cc1cc(-c2c(OCC[C@@H]3CCN3)c3cc(C(=O)Nc4ccncn4)c(Cl)cc3[nH]c2=O)cc(C)c1C`, the IC50 [2] was 0.9 nM.
In the case of `Cc1cc(-c2c(OCCC3CC4CCN3CC4)c3cc(C(=O)Nc4cnsn4)c(Cl)cc3[nH]c2=O)cc(C)c1C` (stereo not given), the IC50 [1] is reported as 0.6 nM and the IC50 [2] is reported as 5.8 nM.
Work on `Cc1cc(-c2c(O)nc3cc(Cl)c(C(=O)Nc4ccncn4)cc3c2OCC[C@@H]2CCCN2)cc(C)c1C` yielded an IC50 [1] of 0.8 nM and an IC50 [2] of 2.2 nM.
